Source: the supplement of paper PMC10307832

Tests used:
Experiment in all cases: relative viability (nuclei count vs DMSO), 5 days (fraction); higher = more cells survive
[1] = compound: Cc1cc(Nc2cc(N3CCN(C)CC3)nc(Sc3ccc(NC(=O)C4CC4)cc3)n2)n[nH]1 [Tozasertib]
Procedure, shortened: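 Hoechst staining, done together with fixation and permeabilisation, marked nuclei for 4× imaging and MetaXpress counting. This followed 5 days without medium change after lung cancer cell lines, kept overnight at 37 °C in 1536-well plates, were pinned with five library-drug doses (not always all listed) spaced by √10 on vehicle-anchored plates. Viability is the ratio of treated-well to vehicle-well nuclei, expressed as a median across plates. Plates passed only at control CV below 25% with at least one doubling.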

[2] = compound: Cc1cc(Nc2cc(N3CCN(C)CC3)nc(Sc3ccc(NC(=O)C4CC4)cc3)n2)n[nH]1 [Tozasertib] + C[C@@H](Oc1cc(-c2cnn(C3CCNCC3)c2)cnc1N)c1c(Cl)ccc(F)c1Cl [Crizotinib] (partner 1 µM)
Procedure, shortened: (§1)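 Relative viability divides the nuclei count in treated wells by that in vehicle wells. Lung cancer cell lines were seeded in 1536-well plates, dosed by pin tool the next day, and fixed and stained after 5 days in one step with final 0.05% Triton X-100, 1% formaldehyde and 1 ug/ml Hoechst. Dosing was a single drug or a fixed anchor-drug dose plus five library-drug doses (not always all listed) in √10 steps, and values are medians of duplicate plates imaged at 4×.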

[3] = compound: Cc1cc(Nc2cc(N3CCN(C)CC3)nc(Sc3ccc(NC(=O)C4CC4)cc3)n2)n[nH]1 [Tozasertib] + CC1(C)CCC(c2ccc(Cl)cc2)=C(CN2CCN(c3ccc(C(=O)NS(=O)(=O)c4ccc(N[C@H](CCN5CCOCC5)CSc5ccccc5)c(S(=O)(=O)C(F)(F)F)c4)cc3)CC2)C1 [Navitoclax] (partner 0.5 µM)
Procedure, shortened: as §1

[4] = compound: Cc1cc(Nc2cc(N3CCN(C)CC3)nc(Sc3ccc(NC(=O)C4CC4)cc3)n2)n[nH]1 [Tozasertib] + CS(=O)(=O)CCNCc1ccc(-c2ccc3ncnc(Nc4ccc(OCc5cccc(F)c5)c(Cl)c4)c3c2)o1 [Lapatinib] (partner 2 µM)
Procedure, shortened: as §1

[5] = compound: Cc1cc(Nc2cc(N3CCN(C)CC3)nc(Sc3ccc(NC(=O)C4CC4)cc3)n2)n[nH]1 [Tozasertib] + Cc1nc(NC(=O)N2CCC[C@H]2C(N)=O)sc1-c1ccnc(C(C)(C)C(F)(F)F)c1 [Alpelisib] (partner 2 µM)
Procedure, shortened: as §1

[6] = compound: Cc1cc(Nc2cc(N3CCN(C)CC3)nc(Sc3ccc(NC(=O)C4CC4)cc3)n2)n[nH]1 [Tozasertib] + COc1cc2c(Oc3ccc(NC(=O)C4(C(=O)Nc5ccc(F)cc5)CC4)cc3F)ccnc2cc1OCCCN1CCOCC1 [Foretinib] (partner 0.25 µM)
Procedure, shortened: as §1

[7] = compound: Cc1cc(Nc2cc(N3CCN(C)CC3)nc(Sc3ccc(NC(=O)C4CC4)cc3)n2)n[nH]1 [Tozasertib] + CC(C)C[C@H](NC(=O)[C@H](Cc1ccccc1)NC(=O)c1cnccn1)B(O)O [Bortezomib] (partner 0.002 µM)
Procedure, shortened: as §1

[8] = compound: Cc1cc(Nc2cc(N3CCN(C)CC3)nc(Sc3ccc(NC(=O)C4CC4)cc3)n2)n[nH]1 [Tozasertib] + C[C@]1(O)C[C@@H](c2nc(-c3ccc4ccc(-c5ccccc5)nc4c3)c3c(N)nccn32)C1 [Linsitinib] (partner 1 µM)
Procedure, shortened: as §1

[9] = compound: Cc1cc(Nc2cc(N3CCN(C)CC3)nc(Sc3ccc(NC(=O)C4CC4)cc3)n2)n[nH]1 [Tozasertib] + CS(=O)(=O)N1CCN(Cc2cc3nc(-c4cccc5[nH]ncc45)nc(N4CCOCC4)c3s2)CC1 [Pictilisib] (partner 1 µM)
Procedure, shortened: as §1

[10] = compound: Cc1cc(Nc2cc(N3CCN(C)CC3)nc(Sc3ccc(NC(=O)C4CC4)cc3)n2)n[nH]1 [Tozasertib] + O=C(c1cc(Cc2n[nH]c(=O)c3ccccc23)ccc1F)N1CCN(C(=O)C2CC2)CC1 [Olaparib] (partner 8 µM)
Procedure, shortened: as §1

[11] = compound: Cc1cc(Nc2cc(N3CCN(C)CC3)nc(Sc3ccc(NC(=O)C4CC4)cc3)n2)n[nH]1 [Tozasertib] + O=C(CCCCCCC(=O)Nc1ccccc1)NO [Vorinostat] (partner 1 µM)
Procedure, shortened: as §1

Row | Cell Line | relative viability ([1]; 0.004 µM) | relative viability ([1]; 0.01265 µM) | relative viability ([1]; 0.04 µM) | relative viability ([1]; 0.1265 µM) | relative viability ([2]; first compound 0.004 µM) | relative viability ([2]; first compound 0.04 µM) | relative viability ([2]; first compound 0.1265 µM) | relative viability ([3]; first compound 0.004 µM) | relative viability ([3]; first compound 0.01265 µM) | relative viability ([3]; first compound 0.04 µM) | relative viability ([3]; first compound 0.1265 µM) | relative viability ([4]; first compound 0.004 µM) | relative viability ([4]; first compound 0.01265 µM) | relative viability ([4]; first compound 0.04 µM) | relative viability ([4]; first compound 0.1265 µM) | relative viability ([5]; first compound 0.004 µM) | relative viability ([5]; first compound 0.01265 µM) | relative viability ([5]; first compound 0.1265 µM) | relative viability ([6]; first compound 0.004 µM) | relative viability ([6]; first compound 0.01265 µM) | also measured
1 | Calu-6 | 1.06 | 0.953 | 0.998 | 0.546 | 0.796 | 0.433 | 0.265 | 0.85 | 0.88 | 0.779 | 0.153 | 1.17 | 0.983 | 1.08 | 0.293 | 1.19 | 0.96 | 0.402 | 0.946 | 0.903 | relative viability ([5]; first compound 0.04 µM): 0.797; relative viability ([6]; first compound 0.04 µM): 0.69; relative viability ([6]; first compound 0.1265 µM): 0.229; relative viability ([7]; first compound 0.004 µM): 0.987; relative viability ([7]; first compound 0.01265 µM): 1.03; relative viability ([7]; first compound 0.04 µM): 1.08; relative viability ([7]; first compound 0.1265 µM): 0.391; relative viability ([8]; first compound 0.004 µM): 0.952; relative viability ([8]; first compound 0.01265 µM): 0.853; relative viability ([8]; first compound 0.04 µM): 1; relative viability ([8]; first compound 0.1265 µM): 0.309; relative viability ([9]; first compound 0.004 µM): 0.946; relative viability ([9]; first compound 0.01265 µM): 0.862; relative viability ([9]; first compound 0.04 µM): 0.781; relative viability ([9]; first compound 0.1265 µM): 0.259; relative viability ([10]; first compound 0.004 µM): 0.557; relative viability ([10]; first compound 0.01265 µM): 0.516; relative viability ([10]; first compound 0.04 µM): 0.595; relative viability ([10]; first compound 0.1265 µM): 0.293
2 | EBC-1 | 1.12 | 1.01 | 1.01 | 0.776 | 0.234 | 0.198 | 0.151 | 0.351 | 0.329 | 0.372 | 0.251 | 0.237 | 0.213 | 0.209 | 0.173 | 0.814 | 0.801 | 0.578 | 0.111 | 0.0987 | relative viability ([2]; first compound 0.01265 µM): 0.202; relative viability ([6]; first compound 0.04 µM): 0.109; relative viability ([6]; first compound 0.1265 µM): 0.105; relative viability ([7]; first compound 0.004 µM): 0.692; relative viability ([7]; first compound 0.01265 µM): 0.461; relative viability ([7]; first compound 0.04 µM): 0.532; relative viability ([7]; first compound 0.1265 µM): 0.367; relative viability ([8]; first compound 0.004 µM): 0.866; relative viability ([8]; first compound 0.01265 µM): 0.841; relative viability ([8]; first compound 0.04 µM): 0.886; relative viability ([8]; first compound 0.1265 µM): 0.486; relative viability ([9]; first compound 0.004 µM): 0.429; relative viability ([9]; first compound 0.01265 µM): 0.333; relative viability ([9]; first compound 0.04 µM): 0.371; relative viability ([9]; first compound 0.1265 µM): 0.39; relative viability ([10]; first compound 0.004 µM): 0.697; relative viability ([10]; first compound 0.01265 µM): 0.724; relative viability ([10]; first compound 0.04 µM): 0.737; relative viability ([10]; first compound 0.1265 µM): 0.608
3 | IA-LM | 1.06 | 0.819 | 0.954 | 0.795 | 0.784 | 0.817 | 0.851 | 0.969 | 0.784 | 0.767 | 0.797 | 0.967 | 0.838 | 1.13 | 0.479 | 0.715 | 0.753 | 0.457 | 1.38 | 1.18 | relative viability ([2]; first compound 0.01265 µM): 1.05; relative viability ([5]; first compound 0.04 µM): 0.871; relative viability ([6]; first compound 0.04 µM): 1.11; relative viability ([6]; first compound 0.1265 µM): 0.914; relative viability ([7]; first compound 0.004 µM): 0.794; relative viability ([7]; first compound 0.1265 µM): 0.849; relative viability ([11]; first compound 0.04 µM): 0.855; relative viability ([11]; first compound 0.1265 µM): 0.854; relative viability ([8]; first compound 0.004 µM): 0.697; relative viability ([8]; first compound 0.01265 µM): 0.564; relative viability ([8]; first compound 0.04 µM): 0.533; relative viability ([8]; first compound 0.1265 µM): 0.307; relative viability ([9]; first compound 0.004 µM): 0.336; relative viability ([9]; first compound 0.01265 µM): 0.302; relative viability ([9]; first compound 0.04 µM): 0.457; relative viability ([9]; first compound 0.1265 µM): 0.265; relative viability ([10]; first compound 0.004 µM): 0.976; relative viability ([10]; first compound 0.01265 µM): 0.909; relative viability ([10]; first compound 0.04 µM): 0.779; relative viability ([10]; first compound 0.1265 µM): 0.814
